Where a name gives a salt, the structure may show the parent alone.

A word on the IC50: it is the concentration at which inhibition is half-maximal.

T1 sequence (P35408 whole entry): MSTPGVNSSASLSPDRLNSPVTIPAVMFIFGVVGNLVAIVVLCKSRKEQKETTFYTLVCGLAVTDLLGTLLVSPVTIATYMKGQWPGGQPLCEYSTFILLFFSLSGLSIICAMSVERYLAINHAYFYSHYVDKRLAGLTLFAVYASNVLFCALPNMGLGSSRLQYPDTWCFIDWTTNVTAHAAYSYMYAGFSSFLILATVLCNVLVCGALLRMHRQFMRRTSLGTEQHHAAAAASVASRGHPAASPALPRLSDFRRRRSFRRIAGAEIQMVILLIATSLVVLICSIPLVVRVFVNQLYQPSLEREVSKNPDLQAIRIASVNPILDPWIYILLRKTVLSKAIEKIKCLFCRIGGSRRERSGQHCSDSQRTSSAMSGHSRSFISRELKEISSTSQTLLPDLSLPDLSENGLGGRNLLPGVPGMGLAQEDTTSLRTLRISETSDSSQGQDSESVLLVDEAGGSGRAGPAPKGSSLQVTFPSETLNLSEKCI

The assay addresses T1, human EP4 (hEP4) receptor (Homo sapiens, UniProt P35408).
T1 construct: expressed in transfected cells; host or cells: HEK-293 T cells, transient co-transfection with polyethylenimine
Put plainly: In vitro human EP4 functional antagonist activity using BRET biosensors (cAMP EPAC biosensor, TCS2510 stimulation). The conditions noted are these: antagonist activity vs EC60 TCS2510, hEP4 in HEK-293 T cells. The assay is classed as cell-based. The protocol:
Examples of the present invention were tested successively for their agonist and antagonist activities on human EP4 (hEP4) receptor transiently over-expressed in HEK-293 T cells. […] The assay used to measure compound activity is based on the BRET technology. The unimolecular cAMP biosensor used to detect intracellular cAMP levels following GPCR stimulation consists of the EPAC protein fused to N- and C-terminal of Luciferase and GFP respectively.
Cell Culture and Transfection: HEK-293 T cells are maintained in Dulbecco's Modified Eagle's Medium supplemented with 10% Foetal Calf Serum, 1% Penicillin/Streptomycin at 37° C./5% CO2. Cells are co-transfected using polyethylenimine (25 kDa linear) with two DNA plasmids encoding hEP4, EPAC fused to luciferase (BRET donor) and to GFP (BRET acceptor). After transfection, cells are cultured (40,000 cells per well) for 48 h at 37° C./5% CO2.
BRET assay: Receptor activity is detected by changes in BRET signal. On the day of the assay, cells are rinsed and incubated in assay buffer (1.8 mM CaCl2, 1 mM MgCl2, 2.7 mM KCl, 137 mM NaCl, 0.4 mM NaH2PO4, 5.5 mM D-Glucose, 11.9 mM NaHCO3, 25 mM Hepes). Then, plates are equilibrated 1 h at 22° C. before adding compounds. Compounds and luciferase substrate are added to the cells using an automated device (Freedom Evo®, Tecan) and BRET readings are collected on EnVision (PerkinElmer) with specific filters (410 nm BW 80 nm, 515 nm BW 30 nm). Agonist and antagonist activities of compounds are consecutively evaluated on the same cell plate. Agonist activity is first measured after 5 min incubation with compound alone on the cells. Then, cells are stimulated by an EC60 TCS2510 concentration and luminescence is recorded for additional 10 min. EC60 TCS2510 concentration is the concentration giving 60% of the maximal TCS2510 response. Agonist or antagonist activities are evaluated in comparison to basal signals evoked by assay buffer or EC60 TCS2510 alone, respectively.
For IC50 determination, a dose-response test is performed using 10 concentrations (ranging over 4.5 logs) of each compound. Dose-response curves are fitted using the sigmoidal dose-response (variable slope) analysis in GraphPad Prism software (GraphPad Software) and IC50 of antagonist activity is calculated. Dose-response experiments are performed in duplicate, in two independent experiments. IC50 values are categorized as following: A: IC50<0.1 μM; B: IC50<1 μM.
Background: BRET reads energy transfer from a luciferase to a nearby fluorophore.
`C[C@H](NC(=O)C1(N2CC[C@@H](Oc3cccc(Cl)c3)C2)CCC(F)(F)CC1)c1ccc(C(=O)O)cc1` [Example 156, 4-[(1S)-1-[[1-[(3R)-3-(3-Chlorophenoxy)pyrrolidin-1-yl]-4,4-difluorocyclohexane-1-carbonyl]amino]ethyl]benzoic acid, hydrochloride]: the IC50 was less than 100 nM.

`O=C(O)c1ccc(C2(NC(=O)C3(N4CCC[C@H](Oc5cccc(Cl)c5)C4)CCOCC3)CC2)cc1` [Example 135, 4-[1-[[4-[(3S)-3-(3-Chlorophenoxy)-1-piperidyl]tetrahydropyran-4-carbonyl]amino]cyclopropyl]benzoic acid, hydrochloride]: the IC50 was less than 1000 nM. Under `C[C@H](NC(=O)C1(N2CC[C@H](Oc3cccc(Cl)c3)C2)CCOCC1)c1ccc(C(=O)O)cc1` [Example 138, 4-[(1S)-1-[[4-[(3S)-3-(3-Chlorophenoxy)pyrrolidin-1-yl]tetrahydropyran-4-carbonyl]amino]ethyl]benzoic acid, hydrochloride] stands less than 1000 nM; under `CC(C)(C(=O)NC[C@H]1CC[C@H](C(=O)O)CC1)N1CC[C@@H](Oc2cccc(C(F)(F)F)c2)C1` [Example 201, (1R,4R)-4-((2-Methyl-2-((R)-3-(3-(trifluoromethyl)phenoxy)pyrrolidin-1-yl)propanamido)methyl)cyclohexane-1-carboxylic acid, hydrochloride], less than 100 nM; under `O=C(O)c1ccc(C2(NC(=O)C3(N4CC[C@@H](Oc5cccc(F)c5)C4)CCOCC3)CC2)cc1` [Example 143, 4-[1-[[4-[(3R)-3-(3-Fluorophenoxy)pyrrolidin-1-yl]tetrahydropyran-4-carbonyl]amino]cyclopropyl]benzoic acid, hydrochloride], less than 100 nM.

Consider `CN(CCOc1ccccc1Cl)C1(C(=O)NC2(c3ccc(C(=O)O)cc3)CC2)CCOCC1` [Example 30, 4-[1-[[4-[2-(2-Chlorophenoxy)ethyl-methyl-amino]tetrahydropyran-4-carbonyl]amino]cyclopropyl]benzoic acid, hydrochloride], for which the IC50 is less than 100 nM. The result for `C[C@H](NC(=O)C1(c2cccc(OCC3CCCCCC3)c2)CCOCC1)c1ccc(C(=O)O)cc1` [Example 103, 4-[(1S)-1-[[4-[3-(Cycloheptylmethoxy)phenyl]tetrahydropyran-4-carbonyl]amino]ethyl]benzoic acid] reads less than 100 nM; that for `CN(CCOc1ccc(OC(F)(F)F)cc1)C1(C(=O)NC2(c3ccc(C(=O)O)cc3)CC2)CCOCC1` [Example 45, 4-[1-[[4-[2-(4-Trifluoromethoxyphenoxy)ethyl-methyl-amino]tetrahydropyran-4-carbonyl]amino]cyclopropyl]benzoic acid, hydrochloride], less than 1000 nM. Under `CN(CCOc1ccccc1F)C1(C(=O)NC2(c3ccc(C(=O)O)cc3)CC2)CCOCC1` [Example 33, 4-[1-[[4-[2-(2-Fluorophenoxy)ethyl-methyl-amino]tetrahydropyran-4-carbonyl]amino]cyclopropyl]benzoic acid, hydrochloride] stands less than 100 nM; under `C[C@H](NC(=O)C1(NCCOc2ccccc2)CCSCC1)c1ccc(C(=O)O)cc1` [Example 66, 4-[(1S)-1-[[4-(2-Phenoxyethylamino)tetrahydrothiopyran-4-carbonyl]amino]ethyl]benzoic acid], less than 100 nM; under `Cc1cccc(OCCNC2(C(=O)N[C@@H](C)c3ccc(C(=O)O)cc3)CCOCC2)c1` [Example 14, 4-[(1S)-1-[[4-[2-(3-Methylphenoxy)ethylamino]tetrahydropyran-4-carbonyl]amino]ethyl]benzoic acid, hydrochloride], less than 100 nM. As to `C[C@H](NC(=O)C1(NCCOc2ccccc2)CCOC(C)(C)C1)c1ccc(C(=O)O)cc1` (single isomer, unassigned) [Example 72, hydrochloride], the IC50 was less than 100 nM. Consider `C[C@H](NC(=O)C1(c2ccnc(OCC3CCCCC3)c2)CCCC1)c1ccc(C(=O)O)cc1` [Example 124, 4-[(1S)-1-[[1-[2-(Cyclohexylmethoxy)-4-pyridyl]cyclopentanecarbonyl]amino]ethyl]benzoic acid], for which the IC50 was less than 100 nM. Under `C[C@H](NC(=O)C1(N2CC[C@@H](Oc3cccc(C(F)(F)F)c3)C2)CCC1)c1ccc(C(=O)O)cc1` [Example 165, 4-[(1S)-1-[[1-[(3R)-3-[3-(Trifluoromethyl)phenoxy]pyrrolidin-1-yl]cyclobutane-1-carbonyl]amino]ethyl]benzoic acid, hydrochloride] stands less than 100 nM. Regarding `CCCN(CCOc1ccccc1)C1(C(=O)NC2(c3ccc(C(=O)O)cc3)CC2)CCOCC1` [Example 26, 4-[1-[[4-[Propyl(2-phenoxyethyl)amino]tetrahydropyran-4-carbonyl]amino]cyclopropyl]benzoic acid, hydrochloride], the IC50 is less than 1000 nM. The result for `C[C@H](NC(=O)C1(c2cccc(OC3CCCCC3)c2)CCOCC1)c1ccc(C(=O)O)cc1` [Example 100, 4-[(1S)-1-[[4-[3-(Cyclohexoxy)phenyl]tetrahydropyran-4-carbonyl]amino]ethyl]benzoic acid] reads less than 1000 nM; that for `C[C@H](NC(=O)C1(c2ccc(OCCc3ccccc3)cc2)CCOCC1)c1ccc(C(=O)O)cc1` [Example 94], less than 1000 nM; that for `C[C@H](NC(=O)C1(NCCOc2ccccc2)CCOCC1)c1ccc(C(=O)O)cc1` [Example 1, 4-[(1S)-1-[[4-(2-Phenoxyethylamino)tetrahydropyran-4-carbonyl]amino]ethyl]benzoic acid, hydrochloride], less than 100 nM. In turn, `Cc1ccccc1OCCN(C)C1(C(=O)NC2(c3ccc(C(=O)O)cc3)CC2)CCOCC1` [Example 36, 4-[1-[[4-[2-(2-Methylphenoxy)ethyl-methyl-amino]tetrahydropyran-4-carbonyl]amino]cyclopropyl]benzoic acid, hydrochloride] yielded an IC50 of less than 100 nM. The result for `COc1ccc(OCCN(C)C2(C(=O)NC3(c4ccc(C(=O)O)cc4)CC3)CCOCC2)cc1` [Example 40, 4-[1-[[4-[2-(4-Methoxyphenoxy)ethyl-methyl-amino]tetrahydropyran-4-carbonyl]amino]cyclopropyl]benzoic acid, hydrochloride] reads less than 1000 nM; that for `CCN(CCOc1cccc(Cl)c1)C1(C(=O)N[C@@H](C)c2ccc(C(=O)O)cc2)CCOCC1` [Example 10, 4-[(1S)-1-[[4-[2-(3-Chlorophenoxy)ethyl-ethyl-amino]tetrahydropyran-4-carbonyl]amino]ethyl]benzoic acid, hydrochloride], less than 100 nM.

As for `C[C@H](NC(=O)C1(N2CC[C@@H](Oc3cccc(OC(F)(F)F)c3)C2)CCOCC1)c1ccc(C(=O)O)cc1` [Example 146, 4-[(1S)-1-[[4-[(3R)-3-[3-(Trifluoromethoxy)phenoxy]pyrrolidin-1-yl]tetrahydropyran-4-carbonyl]amino]ethyl]benzoic acid, hydrochloride], the IC50 was less than 100 nM.

Compound `C[C@H](NC(=O)C1(NCCOc2ccccc2)CCCCC1)c1ccc(C(=O)O)cc1` [Example 55, 4-[(1S)-1-[[1-(2-Phenoxyethylamino)cyclohexanecarbonyl]amino]ethyl]benzoic acid, hydrochloride] came in with an IC50 of less than 1000 nM. `C[C@H](NC(=O)C1(NCCOc2cccc(Cl)c2)CCCC1)C12CC(C(=O)O)(C1)C2` [Example 64, 3-[(1S)-1-[[1-[2-(3-Chlorophenoxy)ethylamino]cyclopentanecarbonyl]amino]ethyl]bicyclo[1.1.1]pentane-1-carboxylic acid, hydrochloride] had an IC50 of less than 1000 nM. The result for `CN(CCOc1ccccc1)C1(C(=O)NC2(c3ccc(C(=O)O)nc3)CC2)CCOCC1` [Example 53, 5-[1-[[4-[Methyl(2-phenoxyethyl)amino]tetrahydropyran-4-carbonyl]amino]cyclopropyl]pyridine-2-carboxylic acid, hydrochloride] reads less than 1000 nM; that for `CNC(=O)c1ccc([C@H](C)NC(=O)C2(N(C)CCOc3ccccc3)CCOCC2)cc1` [Example 4, N-[(1S)-1-[4-(Methylcarbamoyl)phenyl]ethyl]-4-[methyl(2-phenoxyethyl)amino]tetrahydropyran-4-carboxamide], less than 1000 nM; that for `C[C@H](NC(=O)C1(c2cccc(OCC3CCCCC3)c2)CCCC1)c1ccc(C(=O)O)cc1` [Example 112, 4-[(1S)-1-[[1-[3-(Cyclohexylmethoxy)phenyl]cyclopentanecarbonyl]amino]ethyl]benzoic acid], less than 100 nM.
